Experimental findings from patent US10494380B2, “Nitrogen-containing tricyclic derivatives having HIV replication inhibitory activity” (priority 2015, dated 2019) are described below.

Experiment [1] relates to T125A mutant virus (HIV-1 NL-432 recombinant molecular clone, IN gene). The experiment in a line: HIV replication inhibition assay against integrase 124/125 mutant virus (Test Example 2). The experiment is classed as cell-based. The protocol:
Persistently HIV (HTLV-IIIB strain) infected human T cell strain Molt-4 clone8 was cultured in RPMI-1640 medium supplemented with 10% fetal bovine serum and the supernatant was filtered, then the virus titer was measured and stored at −80° C. Polymorphic mutations in HIV-1-infected patients have been observed in amino acids 124 and 125 on the HIV-1 integrase (IN) gene. A point mutation was introduced on the amino acids 124 and/or 125 of IN gene of the HIV-1 NL-432 recombinant molecular clone to generate a mutant virus plasmid construct. These mutant virus plasmids were transfected into 293T cells, and after two days, the supernatant was filtered and then the virus titer was measured and stored at −80° C. Each anti-HIV active substance was diluted with culture medium described above to the designated concentration, which was dispensed into 96-well microtiter plate by 50 μL. Next, 100 μL of MT-4 cell suspension (2.5×10^4 cells) was dispensed into each well, then 50 μl of HIV-containing supernatant diluted with culture medium described above was added thereto (60 pfu (plaque forming unit)).
Cells were cultured at 37° C. in CO2 incubator for four days, then 30 μL of MTT (3-(4,5-dimethylthiazole-2-yl)-2,5-diphenyltetrazolyum bromide) reagent (5 mg/mL in PBS) was added to all wells followed by incubation for 1 hour. In this step, MTT was reduced to insoluble formazan in living cells. To elute generated formazan, 150 μL of the culture supernatant was removed from all wells, then 150 μL of cell lysis solution (10% Triton X-100 and 0.4% (v/v)-HCl containing isopropanol) was added thereto, followed by shaking with a plate mixer. The formazan was measured with micro plate reader at OD: 560 nm and 690 nm (reference wavelength) and the result was compared with the reference wells. EC50 means the compound concentration at which 50% of cytotoxicity caused by virus infection is inhibited.

The subject of a further experiment is HIV. It is filed as cell-based. To be noted: EC50 in the presence of human serum (25%) versus without human serum, MT-4 cells. How it is done: To confirm the influence of human serum on anti-HIV activity as necessary, human serum was added and determined EC50 in this condition. Human serum (100 μL/well) was dispensed into each anti-HIV active substance at a designated concentration dispensed 50 μL each in advance into a 96-well microtiter plate, and the plate was incubate at room temperature for 1 hour. To the serum-free plate, only culture medium (100 μL/well) was dispensed into 96-well microtiter plate. MT-4 cells (3×10^4 cells/well) was infected with 3 μL/well of HIV solution diluted to an appropriate concentration (600 pfu/50 μL) by the required number of wells and incubated at 37° C. for 1 hour. The infected cells were centrifuged at 1200 rpm for 5 minutes, the supernatant was discarded, and the infected cells were dispersed into culture medium for the required number of wells at 50 μL/well. Infected cell suspension was dispensed into a 96-well microtiter plate of which anti-HIV active substance and human serum prepared in advance. The cell mixture was mixed with a plate mixer and cultured in a CO2 incubator for 4 days. The EC50 in the presence of human serum was calculated in the same manner as in Test Example 1 and the ratio of EC50 in the presence of human serum and EC50 in the absence of human serum was calculated as the potency shift value. […]

Where [2] appears, read: Human immunodeficiency virus 1, MT4, read-out: EC50 against T125A mutant virus, T125A mutant virus (HIV-1 NL-432 IN gene), MT-4 cells, MTT.
The mark [3] stands for this setting: T125A mutant virus (HIV-1 NL-432 IN gene), MT-4 cells, MTT, read-out: EC50 against T125A mutant virus.
Setting [4] is: read-out: EC50 against T125A mutant virus, T125A mutant virus (HIV-1 NL-432 IN gene), MT-4 cells, MTT.

Where two headings read alike, the source gives them in different places.

As usually defined, the EC50 is the concentration giving half of the maximal effect. Regarding `COc1cncc(N2CCn3c(C)cc4c(-c5ccc(C)cc5)c([C@H](OC(C)(C)C)C(=O)O)c(C)c2c43)n1` [Compound I-274], the EC50 in experiment [1] (setting [2]) amounted to 14 nM. In addition, in the experiment on HIV, the Potency shift value is 16. As to `CNCCOc1cnc(N2CCn3c(C)cc4c(-c5ccc(C)cc5)c([C@H](OC(C)(C)C)C(=O)O)c(C)c2c43)nc1` [Compound I-224], in experiment [1] (setting [3]), the 50% effective concentration (EC50) came out at 79 nM. For the same compound, the Potency shift value with HIV came to 3.3.

On to `Cc1c([C@H](OC(C)(C)C)C(=O)O)c(-c2ccc(Cl)cc2)c2cc(C)n3c2c1N(c1ncc(OCCCO)cn1)CC3` [Compound I-256], for which the concentration for a half-maximal effect (EC50) in experiment [1] (setting [2]) was determined as 5.6 nM. Further, the Potency shift value in the experiment on HIV was found to be 10. In the same order, the values of `Cc1ccc(-c2c([C@H](OC(C)(C)C)C(=O)O)c(C)c3c4c2cc(C)n4CCN3c2cccc(C(=O)N(C)C)n2)cc1` [Compound I-269] are 29 nM and 7.4.

For the compound `Cc1c([C@H](OC(C)(C)C)C(=O)O)c(-c2ccc(Cl)cc2)c2cc(C)n3c2c1N(c1cccc(=O)n1C)CC3` [Compound I-219], in experiment [1] (setting [3]), the concentration for a half-maximal effect (EC50) is 43 nM. In addition, the Potency shift value with HIV was 7.6. `Cc1c([C@H](OC(C)(C)C)C(=O)O)c(-c2ccc(Cl)cc2)c2cc(C)n3c2c1N(C)C1COCC13` (some centres unmarked) [Compound I-138]: the EC50 in experiment [1] (setting [4]) amounted to 1.5 nM. Besides, in the experiment on HIV, the Potency shift value was determined as 5.8. Turning to `Cc1ccc(-c2c([C@H](OC(C)(C)C)C(=O)O)c(C)c3c4c2cc(C)n4CCN3c2ncc(CN3CCN(C)CC3)cn2)cc1` [Compound I-349], the concentration giving a half-maximal response (EC50) in experiment [1] (setting [2]) was determined as 30 nM. The Potency shift value in the experiment on HIV is reported as 3.6.

With `Cc1c([C@H](OC(C)(C)C)C(=O)O)c(-c2ccc(Cl)cc2)c2cc(C)n3c2c1OC(C)C3` (some centres unmarked) [Compound I-195], the EC50 in experiment [1] (setting [2]) is 15 nM. Also, in the experiment on HIV, the Potency shift value came to 12.

As for `Cc1ccc(-c2c([C@H](OC(C)(C)C)C(=O)O)c(C)c3c4c2cc(C)n4CCN3c2ccc(N3CCCC3=O)cn2)cc1` [Compound I-288], the EC50 in experiment [1] (setting [2]) is 5.3 nM. Besides, in the experiment on HIV, the Potency shift value turned out to be 11. Turning to `CCCCCO[C@H](C(=O)O)c1c(C)c2c3c(cc(C)n3CCN2c2ncc(OC)cn2)c1-c1ccc(Cl)cc1` [Compound I-326], the Potency shift value in the experiment on HIV is on record as 5.8. The same measure, in the same setting: for `COc1cnc(N2CCn3c(C)cc4c(-c5ccc(Cl)cc5)c([C@H](OCC5CC5)C(=O)O)c(C)c2c43)nc1` [Compound I-298] the value was 11; for `Cc1c([C@H](OC(C)(C)C)C(=O)O)c(-c2ccc(Cl)cc2)c2cc(C)n3c2c1N(C)C(c1ccccc1)C3` (some centres unmarked) [Compound I-333], 6.4. Take `CCCO[C@H](C(=O)O)c1c(C)c2c3c(cc(C)n3CCN2c2ncc(OC)cn2)c1-c1ccc(Cl)cc1` [Compound I-297]: the Potency shift value in the experiment with HIV turned out to be 7.6. Same read-out and setting: for `CCO[C@H](C(=O)O)c1c(C)c2c3c(cc(C)n3CCN2c2ncc(OC)cn2)c1-c1ccc(Cl)cc1` [Compound I-296] the value was 2.1; for `Cc1c([C@H](OC(C)(C)C)C(=O)O)c(-c2ccc(Cl)cc2)c2cc(C)n3c2c1N(C)C1CNCC13` (some centres unmarked) [Compound I-237], 2.4; for `Cc1c([C@H](OC(C)(C)C)C(=O)O)c(-c2ccc(F)cc2)c2cc(C)n3c2c1N(CC(=O)N(C)C)CC3` [Compound I-161], 1.9. Same read-out and setting: in the case of `Cc1ccc(-c2c([C@H](OC(C)(C)C)C(=O)O)c(C)c3c4c2cc(C)n4CCN3c2cccc(C(F)(F)F)n2)cc1` [Compound I-285] it was 5.1.

In the case of `Cc1c([C@H](OC(C)(C)C)C(=O)O)c(-c2ccc(Cl)cc2)c2cc(C)n3c2c1N(S(C)(=O)=O)CCC3` [Compound I-078], the EC50 in experiment [1] (setting [2]) was found to be 21 nM.

As to `Cc1c([C@H](OC(C)(C)C)C(=O)O)c(-c2ccc(Cl)cc2)c2cc(C)n3c2c1N(c1ncc(OCOCC[Si](C)(C)C)cn1)CC3` [Compound I-233], in the experiment on HIV, the Potency shift value was 12. Still for that read-out and setting: for `Cc1c([C@H](OC(C)(C)C)C(=O)O)c(-c2ccc(Cl)cc2)c2cc(C)n3c2c1N(C(=O)C(=O)N(C)C)[C@@H](C)C3` [Compound I-168] the value was 2.9. For `[2H]C1([2H])N(C)c2c(C)c([C@H](OC(C)(C)C)C(=O)O)c(-c3ccc(Cl)cc3)c3cc(C)n(c23)C1([2H])[2H]` [Compound I-066], in experiment [1] (setting [2]), the half-maximal effective concentration (EC50) was 4 nM. Still for that read-out and setting: for `Cc1c([C@H](OC(C)(C)C)C(=O)O)c(-c2ccc(Cl)cc2)c2c(F)c(C)n3c2c1N(S(C)(=O)=O)CC3` [Compound I-052] the value was 9 nM; for `Cc1c([C@H](OC(C)(C)C)C(=O)O)c(-c2ccc(Cl)cc2)c2cc(C)n3c2c1N(C)S(=O)(=O)CC3` [Compound I-071], 45 nM.

Regarding `[2H]C([2H])([2H])N1CCn2c(C)cc3c(-c4ccc(Cl)cc4)c([C@H](OC(C)(C)C)C(=O)O)c(C)c1c32` [Compound I-104], in experiment [1] (setting [2]), the half-maximal effective concentration (EC50) was 4.1 nM. Still for that read-out and setting: for `COCC(=O)N1CCn2c(C)cc3c(-c4ccc(C)cc4)c([C@H](OC(C)(C)C)C(=O)O)c(C)c1c32` [Compound I-047] the value was 46 nM; for `CC(=O)N1c2c(C)c([C@H](OC(C)(C)C)C(=O)O)c(-c3ccc(Cl)cc3)c3cc(C)n(c23)C[C@@H]1C` [Compound I-046], 18 nM; for `Cc1c([C@H](OC(C)(C)C)C(=O)O)c(-c2ccc(Cl)cc2)c2cc(C)n3c2c1N(Cc1cncnc1)CC3` [Compound I-153], 11 nM. As for `CCCCO[C@H](C(=O)O)c1c(C)c2c3c(cc(C)n3CCN2c2ncc(OC)cn2)c1-c1ccc(Cl)cc1` [Compound I-325], the Potency shift value with HIV stood at 5.4. Same read-out and setting: in the case of `COc1cnc(N2CCn3c(C)cc4c(-c5ccc(Cl)cc5)c([C@H](OCCO)C(=O)O)c(C)c2c43)nc1` [Compound I-317] it was 1.3. As for `COc1cnc(N2CCn3c(C)c(Cl)c4c(-c5ccc(C)cc5)c([C@H](OC(C)(C)C)C(=O)O)c(C)c2c43)nc1` [Compound I-323], in experiment [1] (setting [2]), the EC50 was determined as 16 nM. On to `Cc1c([C@H](OC(C)(C)C)C(=O)O)c(-c2ccc(Cl)cc2)c2cc(C)n3c2c1N(C)[C@@H](C)C3` [Compound I-053], for which the EC50 in experiment [1] (setting [2]) worked out at 5.6 nM. The same measure, in the same setting: for `Cc1c([C@H](OC(C)(C)C)C(=O)O)c(-c2ccc(Cl)cc2)c2cc(C)n3c2c1N(C)C(c1ccccc1)C3` (some centres unmarked) [Compound I-334] the value was 93 nM. As for `Cc1c([C@H](OC(C)(C)C)C(=O)O)c(-c2ccc(Cl)cc2)c2cc(C)n3c2c1N(C)CC3C` (some centres unmarked) [Compound I-091], the EC50 in experiment [1] (setting [4]) turned out to be 2 nM. Consider `Cc1c([C@H](OC(C)(C)C)C(=O)O)c(-c2ccc(C(F)F)cc2)c2cc(C)n3c2c1N(C)CC3` [Compound I-049], for which the EC50 in experiment [1] (setting [2]) is 22 nM. In the case of `COCCN1CCn2c(C)cc3c(-c4ccc(F)cc4)c([C@H](OC(C)(C)C)C(=O)O)c(C)c1c32` [Compound I-089], the EC50 in experiment [1] (setting [2]) was 18 nM. On the same count and under the same terms, in the case of `COC(=O)N1c2c(C)c([C@H](OC(C)(C)C)C(=O)O)c(-c3ccc(Cl)cc3)c3cc(C)n(c23)C[C@@H]1C` [Compound I-065] it was 12 nM; in that of `Cc1c(-c2c([C@H](OC(C)(C)C)C(=O)O)c(C)c3c4c2cc(C)n4CCN3C)ccc2c1NCCO2` [Compound I-160], 70 nM; in that of `Cc1ccc(-c2c([C@H](OC(C)(C)C)C(=O)O)c(C)c3c4c2cc(C)n4C[C@@H](C)N3CCN2CCOCC2)cc1` [Compound I-158], 4.6 nM. For `Cc1ccc(-c2c([C@H](OC(C)(C)C)C(=O)O)c(C)c3c4c2cc(C)n4CCN3c2ncc(C3CC3)cn2)cc1` [Compound I-271], the EC50 in experiment [1] (setting [2]) came out at 4.2 nM. The same measure, in the same setting: for `Cc1c([C@H](OC(C)(C)C)C(=O)O)c(-c2ccc(Cl)cc2)c2cc(C)n3c2c1N(c1ncc(OC(C)C)cn1)CC3` [Compound I-261] the value was 3.7 nM; for `Cc1c([C@H](OC(C)(C)C)C(=O)O)c(-c2ccc(Cl)cc2)c2cc(C)n3c2c1N(CCN(C)C)CC3` [Compound I-075], 24 nM.
